Laboratory results reported in ChEMBL document CHEMBL1131272, “Aromatic analogs of arcaine inhibit MK-801 binding to the NMDA receptor” (Bioorg Med Chem Lett, 1998).

Tests used:
[1] = biological target: Glutamate [NMDA] receptor; assay: Ability to inhibit MK-801 binding to NMDA receptor in the presence of 100 uM of spermidine was determined; assay type: protein-complex assay
[2] = biological target: Glutamate [NMDA] receptor; assay: Ability to inhibit MK-801 binding to the NMDA receptor was determined; assay type: protein-complex assay

Structure (SMILES)	IC50 [1]	IC50 [2]
CCN(Cc1cccc(CN(CC)C(=N)N)c1)C(=N)N	75.8 µM	5.1 µM
N=C(N)NCc1cccc(CNC(=N)N)c1	7.09 µM	1.19 µM
CCCN(Cc1cccc(CN(CCC)C(=N)N)n1)C(=N)N	95.2 µM	8.62 µM
COc1cc(CNC(=N)N)cc(CNC(=N)N)c1	5.89 µM	1.3 µM
N=C(N)NCc1cc(CNC(=N)N)cc(-c2ccccc2)c1	15.7 µM	5.14 µM
CC(C)Oc1cc(CNC(=N)N)cc(CNC(=N)N)c1	10.5 µM	2.43 µM
N=C(N)N(Cc1ccccc1)Cc1cccc(CN(Cc2ccccc2)C(=N)N)c1	2.23 µM	3.82 µM
NC(N)=NCCCCN=C(N)N [ARCAINE]	80 µM	9.13 µM

Further molecules by falling IC50 [1], results first:

IC50 [1]	IC50 [2]	Structure (SMILES)
112 µM	10.8 µM	CC(C)CN(Cc1cccc(CN(CC(C)C)C(=N)N)c1)C(=N)N
111 µM	10.6 µM	CCCN(Cc1cc(O)cc(CN(CCC)C(=N)N)c1)C(=N)N
55.3 µM	20.6 µM	CCCN(Cc1cc(CN(CCC)C(=N)N)cc(OC)c1)C(=N)N
49.3 µM	4.02 µM	N=C(N)NCc1cccc(CNC(=N)N)n1
29.8 µM	3.85 µM	C=CCN(Cc1cccc(CN(CC=C)C(=N)N)c1)C(=N)N
20.6 µM	4.34 µM	N=C(N)NCc1cc(CNC(=N)N)cc(NC(=O)c2ccccc2)c1
12.2 µM	0.58 µM	CCCN(Cc1cccc(CN(CCC)C(=N)N)c1)C(=N)N
9.88 µM	9.07 µM	N=C(N)NCc1cc(CNC(=N)N)cc(OC2CCCCC2)c1
9.27 µM	2.8 µM	CCCCN(Cc1cccc(CN(CCCC)C(=N)N)c1)C(=N)N
